Structures can show the parent of a compound that is named as a salt.
Columns and labels:
[1] = tested on: mouse colon cancer, Colon26; assay: Antitumor effect against tumor-bearing mouse (2); assay type: in vivo; details: once intravenously, 8th day after initiation of administration, average ± SD, volume on day of initiation = 1.0
Description: Tumor of mouse colon cancer, Colon26, maintained by serial subcutaneous subculture in mice, was minced into about 2-mm square blocks, and the blocks were transplanted subcutaneously on the dorsal part of a mouse. On the 7th day after tumor transplantation, the compound of Example 3 (indicated as Compound 3 in Table 3) and the compound of Example 4 (indicated as Compound 4 in Table 3), respectively dissolved in physiological saline, and gemcitabine hydrochloride as a control drug dissolved in a 5% glucose injection solution were respectively administered once intravenously at the doses indicated in Table 3. The tumor volumes on the day of initiation of administration and on the 8th day after the initiation of administration were calculated in the same manner as in Test Example 3, and the relative tumor volumes on the day of initiation of administration and on the 8th day after the initiation of administration were determined.

[2] = tested on: mouse colon cancer, Colon26; assay: Antitumor effect against tumor-bearing mouse (1); assay type: in vivo; details: once intravenously, 7th day after initiation of administration, average ± SD, volume on day of initiation = 1.0
Description: Tumor of mouse colon cancer, Colon26, maintained by serial subcutaneous subculture in mice, was minced into about 2-mm square blocks, and the blocks were transplanted subcutaneously on the dorsal part of a mouse using a trocar. On the 7th day after tumor transplantation, the compound of Example 1 (indicated as Compound 1 in Table 2) and the compound of Example 2 (indicated as Compound 2 in Table 2), respectively dissolved in physiological saline, and gemcitabine hydrochloride as a control drug dissolved in a 5% glucose injection solution were respectively administered once intravenously at the doses indicated in Table 2. The tumor volumes on the day of initiation of administration and on the 7th day after the initiation of administration were calculated by the following equation, and the relative tumor volumes on the day of initiation of administration and on the 7th day after the initiation of administration were determined.

[3] = dose 200 mg/kg in terms of gemcitabine hydrochloride

Nc1ccn([C@@H]2O[C@H](CO)[C@@H](O)C2(F)F)c(=O)n1 [Control drug, gemcitabine hydrochloride]
Relative tumor volume ([1]; dose 40 mg/kg in terms of gemcitabine hydrochloride): 5.3 ± 1.1 | Relative tumor volume [1, 3]: 4.8 ± 1.7 | Relative tumor volume ([2]; dose 100 mg/kg in terms of gemcitabine hydrochloride): 3.9 ± 0.5 | Relative tumor volume [2, 3]: 3.4 ± 0.6
